ChEMBL document CHEMBL4507262, “Data for DCP probe A-1596586” (2021)

Experiments:
[1] = target: Translocator protein (Rattus norvegicus) (UniProt P16257); experiment: BZD (peripheral) Eurofins-Cerep binding assay; parameters: ligand concentration 0.2 nM; details: filed as antagonist, Compound concentration 10.0 uM
[2] = target: Ephrin type-A receptor 2 (Homo sapiens) (UniProt P29317); details: Compound concentration 1000.0 nM
[3] = target: Sodium-dependent noradrenaline transporter (Homo sapiens) (UniProt P23975); experiment: norepinephrine transporter (h) Eurofins-Cerep binding assay; parameters: ligand concentration 1 nM; details: filed as antagonist, Compound concentration 10.0 uM
[4] = target: Megakaryocyte-associated tyrosine-protein kinase (Homo sapiens) (UniProt P42679); details: Compound concentration 1000.0 nM
Sequence of Megakaryocyte-associated tyrosine-protein kinase (Homo sapiens) (P42679 whole entry): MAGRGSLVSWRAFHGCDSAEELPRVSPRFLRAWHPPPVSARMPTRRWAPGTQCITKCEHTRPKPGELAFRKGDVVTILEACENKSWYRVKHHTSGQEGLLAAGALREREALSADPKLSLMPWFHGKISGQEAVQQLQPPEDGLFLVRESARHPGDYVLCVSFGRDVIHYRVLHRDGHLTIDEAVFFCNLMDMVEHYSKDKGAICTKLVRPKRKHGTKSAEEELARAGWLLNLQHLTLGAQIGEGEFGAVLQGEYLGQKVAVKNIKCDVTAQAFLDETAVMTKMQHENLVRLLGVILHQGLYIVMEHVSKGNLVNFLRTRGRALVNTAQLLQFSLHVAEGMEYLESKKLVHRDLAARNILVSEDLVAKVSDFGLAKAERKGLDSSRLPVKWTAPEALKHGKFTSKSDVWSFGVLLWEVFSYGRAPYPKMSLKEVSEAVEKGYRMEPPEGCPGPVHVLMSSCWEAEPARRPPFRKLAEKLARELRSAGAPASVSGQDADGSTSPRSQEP

[5] = target: Sodium-dependent serotonin transporter (Homo sapiens) (UniProt P31645); details: Compound concentration 10.0 uM
Sequence of Sodium-dependent serotonin transporter (Homo sapiens) (P31645 whole entry, looked up): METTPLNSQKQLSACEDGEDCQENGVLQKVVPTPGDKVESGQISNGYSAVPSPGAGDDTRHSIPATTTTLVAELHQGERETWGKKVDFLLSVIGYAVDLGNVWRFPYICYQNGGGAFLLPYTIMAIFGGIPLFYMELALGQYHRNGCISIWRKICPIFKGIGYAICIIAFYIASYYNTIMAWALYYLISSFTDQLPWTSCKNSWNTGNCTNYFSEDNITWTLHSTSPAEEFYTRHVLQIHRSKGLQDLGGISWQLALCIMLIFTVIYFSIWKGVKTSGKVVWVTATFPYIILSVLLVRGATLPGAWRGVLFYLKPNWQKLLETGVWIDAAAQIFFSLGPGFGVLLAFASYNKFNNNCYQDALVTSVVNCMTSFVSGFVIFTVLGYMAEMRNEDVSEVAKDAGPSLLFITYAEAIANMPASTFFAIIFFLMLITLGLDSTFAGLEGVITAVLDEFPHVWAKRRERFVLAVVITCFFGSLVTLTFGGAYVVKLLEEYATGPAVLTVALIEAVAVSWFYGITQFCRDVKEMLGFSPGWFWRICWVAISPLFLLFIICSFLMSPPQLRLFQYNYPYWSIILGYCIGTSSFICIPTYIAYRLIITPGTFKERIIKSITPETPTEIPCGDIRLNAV

[6] = target: T1, Muscarinic acetylcholine receptor M4 (Homo sapiens) (UniProt P08173); experiment: M4 (h) Eurofins-Cerep binding assay; parameters: ligand concentration 0.2 nM; details: filed as antagonist, Compound concentration 10.0 uM
T1 sequence (whole entry): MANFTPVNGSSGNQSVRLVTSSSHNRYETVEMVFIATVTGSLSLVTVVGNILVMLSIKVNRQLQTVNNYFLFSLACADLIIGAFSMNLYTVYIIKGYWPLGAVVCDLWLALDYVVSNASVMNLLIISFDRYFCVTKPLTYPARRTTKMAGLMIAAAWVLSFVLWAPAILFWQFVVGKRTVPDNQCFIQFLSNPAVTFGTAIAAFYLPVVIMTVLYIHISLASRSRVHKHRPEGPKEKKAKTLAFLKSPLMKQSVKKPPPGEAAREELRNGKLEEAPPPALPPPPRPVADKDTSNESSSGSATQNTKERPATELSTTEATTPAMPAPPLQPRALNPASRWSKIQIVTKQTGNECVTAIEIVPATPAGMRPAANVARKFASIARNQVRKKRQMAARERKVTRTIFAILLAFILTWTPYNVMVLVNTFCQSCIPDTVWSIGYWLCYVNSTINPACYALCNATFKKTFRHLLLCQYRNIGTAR

[7] = target: Sigma non-opioid intracellular receptor 1 (Homo sapiens, UniProt Q99720); experiment: sigma (non-selective) (h) Eurofins-Cerep binding assay; parameters: ligand concentration 10 nM; details: filed as agonist, Compound concentration 10.0 uM
[8] = target: Citron Rho-interacting kinase (Homo sapiens) (UniProt O14578); details: Compound concentration 1000.0 nM
[9] = target: Serine/threonine-protein kinase tousled-like 2 (Homo sapiens) (UniProt Q86UE8); details: Compound concentration 1000.0 nM
[10] = target: Casein kinase I isoform gamma-3 (Homo sapiens) (UniProt Q9Y6M4); details: Compound concentration 1000.0 nM
Sequence of Casein kinase I isoform gamma-3 (Homo sapiens) (Q9Y6M4 whole entry, looked up, canonical isoform): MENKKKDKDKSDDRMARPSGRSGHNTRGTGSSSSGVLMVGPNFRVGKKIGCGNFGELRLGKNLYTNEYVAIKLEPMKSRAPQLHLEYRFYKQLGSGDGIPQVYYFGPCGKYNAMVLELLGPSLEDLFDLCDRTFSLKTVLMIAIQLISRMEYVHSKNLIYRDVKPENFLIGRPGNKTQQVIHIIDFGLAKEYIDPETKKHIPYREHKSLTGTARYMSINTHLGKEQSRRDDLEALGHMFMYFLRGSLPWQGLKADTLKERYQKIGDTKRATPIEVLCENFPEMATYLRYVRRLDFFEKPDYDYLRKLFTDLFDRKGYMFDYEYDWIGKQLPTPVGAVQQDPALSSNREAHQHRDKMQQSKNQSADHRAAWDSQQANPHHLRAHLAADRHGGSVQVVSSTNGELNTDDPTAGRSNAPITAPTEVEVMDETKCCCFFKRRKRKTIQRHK

[11] = target: Sodium-dependent serotonin transporter (Homo sapiens) (UniProt P31645); experiment: 5-HT transporter (h) Eurofins-Cerep binding assay; parameters: ligand concentration 2 nM; details: filed as antagonist, Compound concentration 10.0 uM
[12] = target: SRSF protein kinase 1 (Homo sapiens) (UniProt Q96SB4); details: Compound concentration 1000.0 nM
[13] = target: Receptor-interacting serine/threonine-protein kinase 1 (Homo sapiens) (UniProt Q13546); details: Compound concentration 1000.0 nM
[14] = target: Calcium/calmodulin-dependent protein kinase kinase 2 (Homo sapiens) (UniProt Q96RR4); details: Compound concentration 1000.0 nM
[15] = target: Ribosomal protein S6 kinase alpha-1 (Homo sapiens) (UniProt Q15418); details: Compound concentration 1000.0 nM
Sequence of Ribosomal protein S6 kinase alpha-1 (Homo sapiens) (Q15418 whole entry): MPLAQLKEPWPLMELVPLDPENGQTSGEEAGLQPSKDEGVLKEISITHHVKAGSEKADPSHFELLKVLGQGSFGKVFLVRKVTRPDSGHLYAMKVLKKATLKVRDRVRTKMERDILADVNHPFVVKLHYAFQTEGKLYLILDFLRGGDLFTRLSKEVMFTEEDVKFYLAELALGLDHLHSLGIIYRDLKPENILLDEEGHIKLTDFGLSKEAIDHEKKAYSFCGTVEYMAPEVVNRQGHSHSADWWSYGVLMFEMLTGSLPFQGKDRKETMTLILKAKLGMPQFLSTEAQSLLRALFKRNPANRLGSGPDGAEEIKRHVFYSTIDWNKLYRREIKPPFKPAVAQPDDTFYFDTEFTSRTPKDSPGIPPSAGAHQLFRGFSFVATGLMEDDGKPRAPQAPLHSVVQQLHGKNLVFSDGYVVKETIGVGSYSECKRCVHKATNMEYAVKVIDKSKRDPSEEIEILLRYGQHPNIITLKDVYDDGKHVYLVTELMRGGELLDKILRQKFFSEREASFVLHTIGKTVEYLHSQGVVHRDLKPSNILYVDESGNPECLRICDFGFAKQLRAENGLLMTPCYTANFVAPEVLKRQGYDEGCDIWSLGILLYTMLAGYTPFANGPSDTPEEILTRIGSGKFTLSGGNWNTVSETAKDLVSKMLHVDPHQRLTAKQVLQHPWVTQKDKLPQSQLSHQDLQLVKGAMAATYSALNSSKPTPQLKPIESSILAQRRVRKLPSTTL

[16] = target: Histamine H3 receptor (Homo sapiens) (UniProt Q9Y5N1); details: Compound concentration 10.0 uM
[17] = target: Tyrosine-protein kinase receptor TYRO3 (Homo sapiens) (UniProt Q06418); details: Compound concentration 1000.0 nM
Sequence of Tyrosine-protein kinase receptor TYRO3 (Homo sapiens) (Q06418 whole entry): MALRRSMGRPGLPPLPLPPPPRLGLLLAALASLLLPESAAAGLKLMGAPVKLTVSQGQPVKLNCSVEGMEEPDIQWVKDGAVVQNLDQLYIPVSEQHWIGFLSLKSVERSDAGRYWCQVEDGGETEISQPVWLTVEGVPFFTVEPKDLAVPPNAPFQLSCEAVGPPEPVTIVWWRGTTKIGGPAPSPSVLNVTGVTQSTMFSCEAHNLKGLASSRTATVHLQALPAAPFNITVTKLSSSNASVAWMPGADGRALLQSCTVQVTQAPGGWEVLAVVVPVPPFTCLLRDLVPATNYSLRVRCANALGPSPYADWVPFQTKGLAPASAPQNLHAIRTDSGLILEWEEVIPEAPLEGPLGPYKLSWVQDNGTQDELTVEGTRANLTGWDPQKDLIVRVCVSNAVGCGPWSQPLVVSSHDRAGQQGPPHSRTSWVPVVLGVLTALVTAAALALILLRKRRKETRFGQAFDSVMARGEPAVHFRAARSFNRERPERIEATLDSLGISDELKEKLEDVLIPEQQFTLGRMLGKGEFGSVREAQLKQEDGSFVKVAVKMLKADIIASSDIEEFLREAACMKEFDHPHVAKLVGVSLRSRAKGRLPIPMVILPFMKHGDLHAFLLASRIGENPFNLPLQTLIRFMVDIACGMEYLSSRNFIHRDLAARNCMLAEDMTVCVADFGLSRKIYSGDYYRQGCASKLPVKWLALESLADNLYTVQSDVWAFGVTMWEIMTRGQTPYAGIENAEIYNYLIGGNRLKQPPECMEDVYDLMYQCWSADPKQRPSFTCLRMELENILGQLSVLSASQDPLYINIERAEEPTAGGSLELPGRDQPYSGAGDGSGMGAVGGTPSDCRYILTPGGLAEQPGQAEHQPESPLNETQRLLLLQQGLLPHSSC

[18] = target: Mitogen-activated protein kinase kinase kinase 13 (Homo sapiens) (UniProt O43283); details: Compound concentration 1000.0 nM
Sequence of Mitogen-activated protein kinase kinase kinase 13 (Homo sapiens) (O43283 whole entry): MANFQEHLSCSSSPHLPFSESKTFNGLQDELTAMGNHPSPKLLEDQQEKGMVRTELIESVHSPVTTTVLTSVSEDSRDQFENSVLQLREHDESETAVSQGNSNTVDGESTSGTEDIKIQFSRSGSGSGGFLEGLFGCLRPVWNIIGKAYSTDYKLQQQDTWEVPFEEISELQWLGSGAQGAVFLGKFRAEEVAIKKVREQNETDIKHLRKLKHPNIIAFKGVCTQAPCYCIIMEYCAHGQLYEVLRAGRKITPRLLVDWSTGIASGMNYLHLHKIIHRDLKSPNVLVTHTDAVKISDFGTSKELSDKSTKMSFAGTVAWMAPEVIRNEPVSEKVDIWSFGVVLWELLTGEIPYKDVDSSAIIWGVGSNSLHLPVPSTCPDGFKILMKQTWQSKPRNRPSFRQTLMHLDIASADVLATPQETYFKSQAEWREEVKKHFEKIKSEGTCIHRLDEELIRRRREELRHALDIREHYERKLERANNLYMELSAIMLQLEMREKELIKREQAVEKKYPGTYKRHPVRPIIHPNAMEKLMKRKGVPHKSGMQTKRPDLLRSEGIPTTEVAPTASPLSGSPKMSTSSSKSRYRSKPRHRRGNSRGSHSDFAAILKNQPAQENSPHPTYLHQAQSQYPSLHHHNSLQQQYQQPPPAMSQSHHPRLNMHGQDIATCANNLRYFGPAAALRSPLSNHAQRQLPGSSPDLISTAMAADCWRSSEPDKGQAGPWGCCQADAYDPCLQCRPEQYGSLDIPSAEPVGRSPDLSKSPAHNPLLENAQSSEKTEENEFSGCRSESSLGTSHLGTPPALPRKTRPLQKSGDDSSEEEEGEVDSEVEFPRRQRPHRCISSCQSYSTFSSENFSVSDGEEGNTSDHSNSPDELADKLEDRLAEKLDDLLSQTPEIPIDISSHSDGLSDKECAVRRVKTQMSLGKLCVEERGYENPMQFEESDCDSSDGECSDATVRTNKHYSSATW

[19] = target: Proto-oncogene tyrosine-protein kinase Src (Homo sapiens) (UniProt P12931); details: Compound concentration 1000.0 nM
Sequence of Proto-oncogene tyrosine-protein kinase Src (Homo sapiens) (P12931 2-536 limits assumed): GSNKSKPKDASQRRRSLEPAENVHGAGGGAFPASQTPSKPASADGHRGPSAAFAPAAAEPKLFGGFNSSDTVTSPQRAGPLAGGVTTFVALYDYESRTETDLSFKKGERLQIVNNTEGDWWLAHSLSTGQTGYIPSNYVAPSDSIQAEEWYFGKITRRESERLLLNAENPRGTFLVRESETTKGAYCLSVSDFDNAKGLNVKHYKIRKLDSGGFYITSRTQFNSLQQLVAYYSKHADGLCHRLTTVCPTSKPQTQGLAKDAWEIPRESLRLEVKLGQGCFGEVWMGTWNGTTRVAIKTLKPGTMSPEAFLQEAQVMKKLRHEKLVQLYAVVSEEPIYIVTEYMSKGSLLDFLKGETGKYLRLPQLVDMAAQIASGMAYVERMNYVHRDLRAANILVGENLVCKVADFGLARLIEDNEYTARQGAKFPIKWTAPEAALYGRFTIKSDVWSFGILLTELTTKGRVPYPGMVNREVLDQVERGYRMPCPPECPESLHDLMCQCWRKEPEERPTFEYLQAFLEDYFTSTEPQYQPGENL

[20] = target: L-type Ca2+ channel (diltiazem site, benzothiazepines) (Rattus norvegicus, UniProt P22002+P27732+Q02485); experiment: Ca2+ channel (L, diltiazem site) (benzothiazepines) Eurofins-Cerep binding assay; format: protein assay; parameters: incubation time 120 min, incubation temperature RT, ligand concentration 15 nM; details: rat cerebral cortex, probe [3H]diltiazem (15 nM), compound concentration 10 uM, read-out: % Inhibition of Control Specific Binding (Mean n=2)
[21] = system: Mast/stem cell growth factor receptor Kit (Homo sapiens), P10721 [V559D]; details: Compound concentration 1000.0 nM
[22] = target: 5-hydroxytryptamine receptor 6 (Homo sapiens) (UniProt P50406); details: Compound concentration 10.0 uM
[23] = target: T2, 5-hydroxytryptamine receptor 2C (Homo sapiens) (UniProt P28335); details: Compound concentration 10.0 uM
T2 sequence (whole entry): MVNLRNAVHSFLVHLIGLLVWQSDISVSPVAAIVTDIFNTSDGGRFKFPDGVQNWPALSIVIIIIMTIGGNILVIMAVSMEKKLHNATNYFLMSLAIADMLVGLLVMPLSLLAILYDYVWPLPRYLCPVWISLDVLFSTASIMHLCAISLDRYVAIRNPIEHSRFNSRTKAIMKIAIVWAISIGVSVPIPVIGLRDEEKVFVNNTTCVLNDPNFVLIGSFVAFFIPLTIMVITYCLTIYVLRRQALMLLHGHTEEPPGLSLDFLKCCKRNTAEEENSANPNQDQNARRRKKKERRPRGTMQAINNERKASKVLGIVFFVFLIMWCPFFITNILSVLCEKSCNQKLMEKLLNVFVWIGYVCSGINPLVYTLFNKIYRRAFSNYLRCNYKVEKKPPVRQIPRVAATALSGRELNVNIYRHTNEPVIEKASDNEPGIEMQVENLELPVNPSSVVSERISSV

[24] = target: T3, Muscarinic acetylcholine receptor M2 (Homo sapiens) (UniProt P08172); details: Compound concentration 10.0 uM
T3 sequence (whole entry): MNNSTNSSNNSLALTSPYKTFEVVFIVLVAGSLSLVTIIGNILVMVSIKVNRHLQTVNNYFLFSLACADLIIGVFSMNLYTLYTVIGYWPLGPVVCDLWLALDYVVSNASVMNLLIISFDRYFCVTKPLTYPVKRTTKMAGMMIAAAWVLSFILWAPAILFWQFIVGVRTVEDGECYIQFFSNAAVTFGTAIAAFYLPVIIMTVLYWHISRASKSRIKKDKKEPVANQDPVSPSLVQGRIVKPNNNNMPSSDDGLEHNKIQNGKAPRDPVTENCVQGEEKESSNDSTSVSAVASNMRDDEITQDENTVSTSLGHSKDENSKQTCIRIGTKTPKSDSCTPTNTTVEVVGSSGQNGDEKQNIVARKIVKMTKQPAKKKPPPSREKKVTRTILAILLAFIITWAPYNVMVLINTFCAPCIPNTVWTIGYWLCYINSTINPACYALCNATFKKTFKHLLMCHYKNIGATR

[25] = target: 5-hydroxytryptamine receptor 5A (Homo sapiens) (UniProt P47898); details: Compound concentration 10.0 uM

Sequence of Translocator protein (Rattus norvegicus) (P16257 whole entry, looked up): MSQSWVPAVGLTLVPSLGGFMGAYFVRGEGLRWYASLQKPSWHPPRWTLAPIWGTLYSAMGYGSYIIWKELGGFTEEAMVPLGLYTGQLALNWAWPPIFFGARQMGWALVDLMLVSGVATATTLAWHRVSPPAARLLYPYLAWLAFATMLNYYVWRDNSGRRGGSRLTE

SMILES	% Inhibition of Control Specific Binding (Mean n=2) [1] [%]	residual activity [2] [%]	% Inhibition of Control Specific Binding (Mean n=2) [3] [%]	residual activity [4] [%]	% Inhibition of Control Specific Binding (Mean n=2) [6] [%]	% Inhibition of Control Specific Binding (Mean n=2) [7] [%]	residual activity [8] [%]	residual activity [9] [%]	residual activity [10] [%]	% Inhibition of Control Specific Binding (Mean n=2) [11] [%]	residual activity [12] [%]	residual activity [13] [%]	residual activity [14] [%]	residual activity [15] [%]	residual activity [17] [%]	residual activity [18] [%]	residual activity [19] [%]	inhibition at 120 min, 10 µM [20] [%]	residual activity [21] [%]	also measured
COc1ccc2c(c1)O[C@H](c1ccc(OC)c(OC)c1)C[C@@H]2NC(=O)C1(c2ccc3c(c2)OC(F)(F)O3)CC1 [A-1596584]	79.1	94	18.2	100	-3.9	33.1	92	98	100	7	100	100	100	100	97	91	100	-7.6	100	inhibition [5]: 5.75%; inhibition [16]: 10.4%
COc1ccc2c(c1)O[C@@H](c1ccc(OC)c(OC)c1)C[C@H]2NC(=O)C1(c2ccc3c(c2)OC(F)(F)O3)CC1 [A-1596586]	95.9	95	23.5	93	6.1	35.1	90	100	100	11.7	95	93	96	85	97	67	100	29.7	86	inhibition [22]: -7.58%; inhibition [23]: -2.28%; inhibition [24]: -9.38%; inhibition [25]: -7.95%
